Measurements as given in PubChem BioAssay (NCI).
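Step 1: Grow cells in 96-well plates. Step 2: Expose to compound for 48 hours at 5 concentrations. Step 3: Interpolate endpoints linearly; if unreached, use highest concentration. TGI: concentration producing complete growth inhibition.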

Columns and labels:
Experiment in all cases: NCI tumour cell line growth inhibition, 48 h
SNB-78 CNS = tested on: SNB-78 CNS
NCI-H522 lung = tested on: NCI-H522 lung
TK-10 renal = tested on: TK-10 renal
SK-MEL-5 melanoma = tested on: SK-MEL-5 melanoma
UO-31 renal = tested on: UO-31 renal
SK-MEL-28 melanoma = tested on: SK-MEL-28 melanoma
HCT-15 colon = tested on: HCT-15 colon
XF 498 CNS = tested on: XF 498 CNS
DLD-1 colon = tested on: DLD-1 colon
K-562 leukemia = tested on: K-562 leukemia
UACC-62 melanoma = tested on: UACC-62 melanoma
RXF-631 renal = tested on: RXF-631 renal
NCI-H226 lung = tested on: NCI-H226 lung
SN12C renal = tested on: SN12C renal
OVCAR-4 ovarian = tested on: OVCAR-4 ovarian
SF-539 CNS = tested on: SF-539 CNS
SF-295 CNS = tested on: SF-295 CNS
MOLT-4 leukemia = tested on: MOLT-4 leukemia
ACHN renal = tested on: ACHN renal
CAKI-1 renal = tested on: CAKI-1 renal
HCT-116 colon = tested on: HCT-116 colon
NCI-H460 lung = tested on: NCI-H460 lung
HT29 colon = tested on: HT29 colon
OVCAR-3 ovarian = tested on: OVCAR-3 ovarian
RXF 393 renal = tested on: RXF 393 renal
KM12 colon = tested on: KM12 colon
IGROV1 ovarian = tested on: IGROV1 ovarian
SR leukemia = tested on: SR leukemia
DMS 273 small cell lung = tested on: DMS 273 small cell lung
HL-60(TB) leukemia = tested on: HL-60(TB) leukemia
A498 renal = tested on: A498 renal
DMS 114 small cell lung = tested on: DMS 114 small cell lung
SK-OV-3 ovarian = tested on: SK-OV-3 ovarian
M19-MEL melanoma = tested on: M19-MEL melanoma
SW-620 colon = tested on: SW-620 colon
HOP-62 NSCLC = tested on: HOP-62 NSCLC
NCI-H23 lung = tested on: NCI-H23 lung
HOP-92 NSCLC = tested on: HOP-92 NSCLC
MALME-3M melanoma = tested on: MALME-3M melanoma
RPMI-8226 leukemia = tested on: RPMI-8226 leukemia
786-0 renal = tested on: 786-0 renal
UACC-257 melanoma = tested on: UACC-257 melanoma
SNB-75 CNS = tested on: SNB-75 CNS
LXFL 529 NSCLC = tested on: LXFL 529 NSCLC
COLO 205 colon = tested on: COLO 205 colon
OVCAR-8 ovarian = tested on: OVCAR-8 ovarian
M14 melanoma = tested on: M14 melanoma
KM20L2 colon = tested on: KM20L2 colon
CCRF-CEM leukemia = tested on: CCRF-CEM leukemia
EKVX NSCLC = tested on: EKVX NSCLC
LOX IMVI melanoma = tested on: LOX IMVI melanoma
SF-268 CNS = tested on: SF-268 CNS
HCC-2998 colon = tested on: HCC-2998 colon
SNB-19 CNS = tested on: SNB-19 CNS
OVCAR-5 ovarian = tested on: OVCAR-5 ovarian
U251 CNS = tested on: U251 CNS
A549 NSCLC = tested on: A549 NSCLC
HOP-18 NSCLC = tested on: HOP-18 NSCLC
SK-MEL-2 melanoma = tested on: SK-MEL-2 melanoma

CC(=O)Nc1ccc(C2C(C(=O)Nc3ccccc3C)=C(C)NC(C)=C2C(=O)Nc2ccccc2C)cc1
TGI (SNB-78 CNS): > 100 µM
TGI (NCI-H522 lung): > 100 µM
TGI (TK-10 renal): > 100 µM
TGI (SK-MEL-5 melanoma): > 100 µM
TGI (UO-31 renal): > 100 µM
TGI (SK-MEL-28 melanoma): > 100 µM
TGI (HCT-15 colon): > 100 µM
TGI (XF 498 CNS): > 100 µM
TGI (DLD-1 colon): > 100 µM
TGI (K-562 leukemia): > 100 µM
TGI (UACC-62 melanoma): > 100 µM
TGI (RXF-631 renal): > 100 µM
TGI (NCI-H226 lung): > 100 µM
TGI (SN12C renal): > 100 µM
TGI (OVCAR-4 ovarian): > 100 µM
TGI (SF-539 CNS): > 100 µM
TGI (SF-295 CNS): > 100 µM
TGI (MOLT-4 leukemia): > 26.2 µM
TGI (ACHN renal): > 100 µM
TGI (CAKI-1 renal): > 100 µM
TGI (HCT-116 colon): > 100 µM
TGI (NCI-H460 lung): > 100 µM
TGI (HT29 colon): > 100 µM
TGI (OVCAR-3 ovarian): > 100 µM
TGI (RXF 393 renal): > 100 µM
TGI (KM12 colon): > 31.6 µM
TGI (IGROV1 ovarian): > 100 µM
TGI (SR leukemia): > 100 µM
TGI (DMS 273 small cell lung): > 100 µM
TGI (HL-60(TB) leukemia): > 100 µM
TGI (A498 renal): > 100 µM
TGI (DMS 114 small cell lung): > 100 µM
TGI (SK-OV-3 ovarian): > 100 µM
TGI (M19-MEL melanoma): > 100 µM
TGI (SW-620 colon): > 100 µM
TGI (HOP-62 NSCLC): > 100 µM
TGI (NCI-H23 lung): > 100 µM
TGI (HOP-92 NSCLC): > 100 µM
TGI (MALME-3M melanoma): > 100 µM
TGI (RPMI-8226 leukemia): > 100 µM
TGI (786-0 renal): > 100 µM
TGI (UACC-257 melanoma): > 100 µM
TGI (SNB-75 CNS): > 100 µM
TGI (LXFL 529 NSCLC): > 100 µM
TGI (COLO 205 colon): > 100 µM
TGI (OVCAR-8 ovarian): > 100 µM
TGI (M14 melanoma): > 100 µM
TGI (KM20L2 colon): > 100 µM
TGI (CCRF-CEM leukemia): > 100 µM
TGI (EKVX NSCLC): > 100 µM
TGI (LOX IMVI melanoma): > 100 µM
TGI (SF-268 CNS): > 100 µM
TGI (HCC-2998 colon): > 100 µM
TGI (SNB-19 CNS): > 100 µM
TGI (OVCAR-5 ovarian): > 100 µM
TGI (U251 CNS): > 100 µM
TGI (A549 NSCLC): > 100 µM
TGI (HOP-18 NSCLC): > 100 µM
TGI (SK-MEL-2 melanoma): > 100 µM

C[Si](C)(C)/N=C1\N2C(=NC1(C(F)(F)F)C(F)(F)F)Sc1ccccc12
TGI (SNB-78 CNS): > 50 µM
TGI (NCI-H522 lung): > 50 µM
TGI (TK-10 renal): > 50 µM
TGI (SK-MEL-5 melanoma): > 50 µM
TGI (UO-31 renal): > 50 µM
TGI (HCT-15 colon): > 50 µM
TGI (XF 498 CNS): > 50 µM
TGI (DLD-1 colon): > 50 µM
TGI (K-562 leukemia): > 50 µM
TGI (UACC-62 melanoma): > 50 µM
TGI (RXF-631 renal): > 50 µM
TGI (NCI-H226 lung): > 50 µM
TGI (SN12C renal): > 50 µM
TGI (OVCAR-4 ovarian): > 50 µM
TGI (SF-539 CNS): > 50 µM
TGI (SF-295 CNS): > 50 µM
TGI (MOLT-4 leukemia): > 50 µM
TGI (ACHN renal): > 50 µM
TGI (CAKI-1 renal): > 50 µM
TGI (HCT-116 colon): > 50 µM
TGI (NCI-H460 lung): > 50 µM
TGI (HT29 colon): > 50 µM
TGI (OVCAR-3 ovarian): > 50 µM
TGI (RXF 393 renal): > 50 µM
TGI (KM12 colon): > 50 µM
TGI (IGROV1 ovarian): > 50 µM
TGI (SR leukemia): > 50 µM
TGI (DMS 273 small cell lung): > 50 µM
TGI (HL-60(TB) leukemia): > 50 µM
TGI (A498 renal): > 50 µM
TGI (DMS 114 small cell lung): > 50 µM
TGI (SK-OV-3 ovarian): > 50 µM
TGI (M19-MEL melanoma): > 50 µM
TGI (SW-620 colon): > 50 µM
TGI (HOP-62 NSCLC): > 50 µM
TGI (NCI-H23 lung): > 50 µM
TGI (HOP-92 NSCLC): > 50 µM
TGI (MALME-3M melanoma): > 50 µM
TGI (RPMI-8226 leukemia): > 50 µM
TGI (786-0 renal): > 50 µM
TGI (UACC-257 melanoma): > 50 µM
TGI (SNB-75 CNS): > 50 µM
TGI (LXFL 529 NSCLC): > 50 µM
TGI (COLO 205 colon): > 50 µM
TGI (OVCAR-8 ovarian): > 50 µM
TGI (M14 melanoma): > 50 µM
TGI (KM20L2 colon): > 50 µM
TGI (CCRF-CEM leukemia): > 50 µM
TGI (EKVX NSCLC): > 50 µM
TGI (LOX IMVI melanoma): > 50 µM
TGI (SF-268 CNS): > 50 µM
TGI (HCC-2998 colon): > 50 µM
TGI (SNB-19 CNS): > 50 µM
TGI (OVCAR-5 ovarian): > 50 µM
TGI (U251 CNS): > 50 µM
TGI (A549 NSCLC): > 50 µM
TGI (HOP-18 NSCLC): > 50 µM
TGI (SK-MEL-2 melanoma): > 50 µM

Cn1cnc2[nH]c(=O)[nH]c(=S)c21
TGI (SNB-78 CNS): > 100 µM
TGI (NCI-H522 lung): > 100 µM
TGI (TK-10 renal): > 100 µM
TGI (SK-MEL-5 melanoma): > 100 µM
TGI (UO-31 renal): > 100 µM
TGI (HCT-15 colon): > 100 µM
TGI (XF 498 CNS): > 100 µM
TGI (DLD-1 colon): > 100 µM
TGI (K-562 leukemia): > 100 µM
TGI (UACC-62 melanoma): > 100 µM
TGI (RXF-631 renal): > 100 µM
TGI (NCI-H226 lung): > 100 µM
TGI (SN12C renal): > 100 µM
TGI (OVCAR-4 ovarian): > 100 µM
TGI (SF-539 CNS): > 100 µM
TGI (SF-295 CNS): > 100 µM
TGI (MOLT-4 leukemia): > 100 µM
TGI (ACHN renal): > 100 µM
TGI (CAKI-1 renal): > 100 µM
TGI (HCT-116 colon): > 100 µM
TGI (NCI-H460 lung): > 100 µM
TGI (HT29 colon): > 100 µM
TGI (OVCAR-3 ovarian): > 100 µM
TGI (RXF 393 renal): > 100 µM
TGI (KM12 colon): > 100 µM
TGI (IGROV1 ovarian): > 100 µM
TGI (SR leukemia): > 100 µM
TGI (DMS 273 small cell lung): > 100 µM
TGI (HL-60(TB) leukemia): > 100 µM
TGI (A498 renal): > 100 µM
TGI (DMS 114 small cell lung): > 100 µM
TGI (SK-OV-3 ovarian): > 100 µM
TGI (M19-MEL melanoma): > 100 µM
TGI (SW-620 colon): > 100 µM
TGI (HOP-62 NSCLC): > 100 µM
TGI (NCI-H23 lung): > 100 µM
TGI (HOP-92 NSCLC): > 100 µM
TGI (MALME-3M melanoma): > 100 µM
TGI (RPMI-8226 leukemia): > 100 µM
TGI (786-0 renal): > 100 µM
TGI (UACC-257 melanoma): > 100 µM
TGI (SNB-75 CNS): > 100 µM
TGI (LXFL 529 NSCLC): > 100 µM
TGI (COLO 205 colon): > 100 µM
TGI (OVCAR-8 ovarian): > 100 µM
TGI (M14 melanoma): > 100 µM
TGI (KM20L2 colon): > 100 µM
TGI (CCRF-CEM leukemia): > 100 µM
TGI (EKVX NSCLC): > 100 µM
TGI (SF-268 CNS): > 100 µM
TGI (HCC-2998 colon): > 100 µM
TGI (SNB-19 CNS): > 100 µM
TGI (OVCAR-5 ovarian): > 100 µM
TGI (U251 CNS): > 100 µM
TGI (A549 NSCLC): > 100 µM
TGI (HOP-18 NSCLC): > 100 µM
TGI (SK-MEL-2 melanoma): > 100 µM
